Measured values published in patent EP0594540B1, “Antiretroviral acyl compounds” (Novartis AG, priority 1992, dated 1994).

Experiment: Blood concentration in mice after oral administration (reversed-phase HPLC)
Assay type: in vivo, Mäusen
Details: oral gavage
Experimental: Die zu untersuchenden Verbindungen der Formel I oder als Kontrolle die Vergleichsverbindung der Formel II werden in Dimethylsulfoxid (DMSO) in einer Konzentration von 240 mg/ml gelöst. Die resultierenden Lösungen werden mit 20% (w/v) Hydroxypropyl-β-cyclodextrin (HPβCD) verdünnt, um eine Konzentration der Testsubstanz von 12 mg/ml zu erhalten. Diese Lösung wird Mäusen durch künstliche Sonderernährung in einer Dosis von 120 mg/kg verabreicht. 30, 60, 90 und 120 min nach der Verabreichung werden die Tiere getötet und Blut entnommen. Pro Zeitpunkt werden drei bis vier Tiere untersucht. Das Blut wird heparinisiert und für die Analyse durch eine der folgenden beiden Methoden vorbereitet: Nach der ersten Methode wird Vollblut deproteinisiert durch Mischen eines Volumenteils Blut mit einem Volumenteil Acetonitril; nach Zentrifugation wird der Überstand durch Reversed-Phase-HPLC untersucht. Nach der zweiten Methode wird ein interner Standard zum heparinisierten Blut in einer Endkonzentration von 4 µM zugegeben. Das Blut wird zentrifugiert. 0,25 ml Plasma werden abgenommen und mit einem gleichen Volumen Acetonitril deproteinisiert. Nach Zentrifugation wird der Überstand unter Vakuum eingetrocknet und der Rückstand in 20 µl 3M NaCl-Lösung und 100 µl 0,05M Phthalat-Puffer mit einem pH von 3,0 suspendiert. Die Suspension wird erst mit 1 ml, dann mit 0,2 ml Diisopropylether extrahiert. […]

CC(=O)O[C@H](CN1C[C@H]2CCCC[C@H]2C[C@H]1C(=O)NC(C)(C)C)[C@H](Cc1ccccc1)NC(=O)[C@H](CC(N)=O)NC(=O)c1ccc2ccccc2n1 [N-tert.-Butyl-decahydro-2-[2(R)-acetyloxy-4-phenyl-3(S)-[[N-(2-chinolylcarbonyl)-L-asparaginyl]amino]butyl]-(4aS,8aS)-isochinolin-3(S)-carboxamid]
Konzentration der aktiven Komponente der Formel II im Blut (120 mg/kg, 30, 60, 90 and 120 min after dosing, compared with administration of the compound of formula II in unesterified form): mehr als dreimal so hoch
Absorption der Verbindung der Formel I (120 mg/kg, compared with absorption of the compound of formula II): mehr als viermal so hoch
